For nine molecules, IC50 results are on record in patent US9533991B2, “Inhibitors of Bruton's tyrosine kinase” (PHARMACYCLICS LLC, priority 2014, dated 2017).

In general, IC50 refers to the point on the concentration scale where inhibition reaches its midpoint.

The test system of one test is lymphoma cell line DOHH2. The test can be described thus: Lymphoma cell assay (anti-IgG stimulated CD69, FACS). As to conditions: DOHH-2; DOHH2 cells stimulated with anti-human IgG F(ab')2 10 μg/mL, 14 to 20 hours; read-out: IC50 (50% decrease in CD69 fluorescence on cell surface). The test is classed as cell-based. The procedure: Cells of lymphoma cell line DOHH2 were seeded in 96-well plates in standard growth media (RPMI+10% fetal calf serum). Compounds were added in an 8-point dilution series ranging from 10 to 0.004 μM with DMSO at 0.1% final concentration in all wells. Cells were then stimulated with a F(ab′)2 fragment of anti-human IgG at 10 μg/mL for 14 to 20 hours before staining for FACS analysis. Cells were incubated with fluorescent-labeled anti-CD69 antibody for 30 minutes on ice in FACS buffer and analyzed on the FACSCanto flowcytometry. The IC50, the concentration that results in a 50% decrease in intensity of fluorescence detected on the cell surface, was calculated using the Prizm software to fit the dose-response curve.

The target of test [1] is T1, Btk (Homo sapiens, UniProt Q06187). The test can be described thus: Btk in vitro inhibitory activity (Method A, B or C). The test is classed as biochemical. Also on record: purified from insect cells as a full-length construct containing a N-terminal 6×-His tag; His6 (N); made in house; host or cells: insect cells (baculovirus, Sf21). To be noted: one of the methods of Example 53a, 53b, 53c. The protocol: Btk kinase activity is determined using a time-resolved fluorescence resonance energy transfer (TR-FRET) methodology. Measurements are performed in a reaction volume of 50 μL using 96-well assay plates. Kinase enzyme, inhibitor, ATP (at the Km for the kinase), and 1 μM peptide substrate (Biotin-AVLESEEELYSSARQ-NH2 (SEQ ID NO: 1)) are incubated in a reaction buffer composed of 20 mM Tris, 50 mM NaCl, MgCl2 (5-25 mM depending on the kinase), MnCl2 (0-10 mM), 1 mM DTT, 0.1 mM EDTA, 0.01% bovine serum albumin, 0.005% Tween-20, and 10% DMSO at pH 7.4 for one hour. The reaction is quenched by the addition of 1.2 equivalents of EDTA (relative to divalent cation) in 25 μL of 1× Lance buffer (Perkin-Elmer). Streptavidin-APC (Perkin-Elmer) and Eu-labeled p-Tyr100 antibody (Perkin-Elmer) in 1× Lance buffer are added in a 25 μL volume to give final concentrations of 100 nM and 2.5 nM, respectively, and the mixture is allowed to incubate for one hour. The TR-FRET signal is measured on a multimode plate reader with an excitation wavelength (λEx) of 330 nm and detection wavelengths (λEm) of 615 and 665 nm. Activity is determined by the ratio of the fluorescence at 665 nm to that at 615 nm. For each compound, enzyme activity is measured at various concentrations of compound. Negative control reactions are performed in the absence of inhibitor in replicates of six, and two no-enzyme controls are used to determine baseline fluorescence levels. Inhibition constants, Ki(app), ware obtained using the program BatchKi (Kuzmic et al. (2000), Anal. Biochem. 286:45-50). IC50s are obtained according to the equation: IC50={Ki(app)/1+[ATP]/Km^ATP)}+[E]total/2;
T1 sequence (Q06187 whole entry): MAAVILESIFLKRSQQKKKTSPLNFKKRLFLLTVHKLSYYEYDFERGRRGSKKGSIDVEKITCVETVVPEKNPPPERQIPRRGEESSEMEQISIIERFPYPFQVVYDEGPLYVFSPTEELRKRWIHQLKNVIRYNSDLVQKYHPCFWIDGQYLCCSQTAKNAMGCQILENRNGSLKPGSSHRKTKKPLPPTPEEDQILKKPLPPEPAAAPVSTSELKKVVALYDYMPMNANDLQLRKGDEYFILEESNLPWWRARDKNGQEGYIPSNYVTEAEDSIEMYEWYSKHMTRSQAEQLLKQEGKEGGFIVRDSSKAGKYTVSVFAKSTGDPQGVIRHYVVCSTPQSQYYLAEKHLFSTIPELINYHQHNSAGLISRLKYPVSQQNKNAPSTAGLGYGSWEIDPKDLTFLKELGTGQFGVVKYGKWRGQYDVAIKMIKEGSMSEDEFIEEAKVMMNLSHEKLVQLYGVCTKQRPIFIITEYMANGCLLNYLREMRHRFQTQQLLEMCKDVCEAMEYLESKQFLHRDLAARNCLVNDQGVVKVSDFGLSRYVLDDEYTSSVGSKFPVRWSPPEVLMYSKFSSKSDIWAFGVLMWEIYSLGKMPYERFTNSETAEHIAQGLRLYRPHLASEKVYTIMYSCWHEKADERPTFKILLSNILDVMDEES
For all kinases, [ATP]=Km^ATP, [Btk]total=0.5 nM and [Lck]total=6 nM.
Kinase activity is measured in vitro using electrophoretic mobility shift assay. The kinase reactions are assembled in a total volume of 25 μL in 384 well plates. The reactions comprise: BTK enzyme (1 nM, N-terminal His6-tagged, recombinant, full-length, human BTK purified from baculovirus Sf21 insect cell system), inhibitor, ATP (16 μM, the apparent Km for the kinase), fluorescently labeled peptide substrate (1 μM, FAM-GEEPLYWSFPAKKK-NH2 (SEQ ID NO: 2)) in a reaction buffer composed of 100 mM HEPES, pH7.5, 5 mM MgCl2 1 mM DTT, 0.1% bovine serum albumin, 0.01% Triton X-100, and 1% DMSO. The reaction is incubated for one hour and is quenched by the addition of 45 μL of termination buffer (100 mM HEPES, pH7.5, 0.01% Triton X-100, 30 mM EDTA). The terminated reactions are analyzed using 12 channel LabChip® 3000 microfluidic detection instrument (Caliper Life Sciences). The enzymatic phosphorylation of the peptide results in a change in net charge, enabling electrophoretic separation of product from substrate peptide. As substrate and product peptides are separated, two peaks of fluorescence are observed. Change in the relative fluorescence intensity of the substrate and product peaks is the parameter measured, reflecting enzyme activity. In the presence of an inhibitor, the ratio between product and substrate is altered: the signal of the product decreases, while the signal of the substrate increases.
Activity in each sample is determined as the product to sum ratio (PSR):P/(S+P), where P is the peak height of the product peptide and S is the peak height of the substrate peptide. For each compound, enzyme activity is measured at various concentrations (12 concentrations of compound spaced by 3× dilution intervals). Negative control samples (0%−inhibition in the absence of inhibitor) and positive control samples (100%−inhibition, in the presence of 20 mM EDTA) are assembled in replicates of four and are used to calculate %−inhibition values for each inhibitor at each concentration. Percent inhibition (Pinh) is determined using following equation: […]

The next test has as its target LCK (Homo sapiens, UniProt P06239). The test can be described thus: Inhibition of a panel of kinases: LCK. It is filed as biochemical. As to conditions: kinase panel, Table 2. The procedure:
(§1) The degree of inhibition of a panel of kinases is determined using assays similar to the kinase assay described in Example 53.

The target of test [2] is T1, Btk. The test can be described thus: Inhibition of a panel of kinases: Btk. To be noted: kinase panel, Table 2. It is filed as biochemical. The protocol:
as §1

A further test has as its target EGFR (Homo sapiens, UniProt P00533). The test can be described thus: Inhibition of a panel of kinases: EGFR. The test is classed as biochemical. To be noted: kinase panel, Table 2. The protocol:
as §1

A further test has as its target T2, JAK3 (Homo sapiens, UniProt P52333).
T2 sequence (P52333 1-1124): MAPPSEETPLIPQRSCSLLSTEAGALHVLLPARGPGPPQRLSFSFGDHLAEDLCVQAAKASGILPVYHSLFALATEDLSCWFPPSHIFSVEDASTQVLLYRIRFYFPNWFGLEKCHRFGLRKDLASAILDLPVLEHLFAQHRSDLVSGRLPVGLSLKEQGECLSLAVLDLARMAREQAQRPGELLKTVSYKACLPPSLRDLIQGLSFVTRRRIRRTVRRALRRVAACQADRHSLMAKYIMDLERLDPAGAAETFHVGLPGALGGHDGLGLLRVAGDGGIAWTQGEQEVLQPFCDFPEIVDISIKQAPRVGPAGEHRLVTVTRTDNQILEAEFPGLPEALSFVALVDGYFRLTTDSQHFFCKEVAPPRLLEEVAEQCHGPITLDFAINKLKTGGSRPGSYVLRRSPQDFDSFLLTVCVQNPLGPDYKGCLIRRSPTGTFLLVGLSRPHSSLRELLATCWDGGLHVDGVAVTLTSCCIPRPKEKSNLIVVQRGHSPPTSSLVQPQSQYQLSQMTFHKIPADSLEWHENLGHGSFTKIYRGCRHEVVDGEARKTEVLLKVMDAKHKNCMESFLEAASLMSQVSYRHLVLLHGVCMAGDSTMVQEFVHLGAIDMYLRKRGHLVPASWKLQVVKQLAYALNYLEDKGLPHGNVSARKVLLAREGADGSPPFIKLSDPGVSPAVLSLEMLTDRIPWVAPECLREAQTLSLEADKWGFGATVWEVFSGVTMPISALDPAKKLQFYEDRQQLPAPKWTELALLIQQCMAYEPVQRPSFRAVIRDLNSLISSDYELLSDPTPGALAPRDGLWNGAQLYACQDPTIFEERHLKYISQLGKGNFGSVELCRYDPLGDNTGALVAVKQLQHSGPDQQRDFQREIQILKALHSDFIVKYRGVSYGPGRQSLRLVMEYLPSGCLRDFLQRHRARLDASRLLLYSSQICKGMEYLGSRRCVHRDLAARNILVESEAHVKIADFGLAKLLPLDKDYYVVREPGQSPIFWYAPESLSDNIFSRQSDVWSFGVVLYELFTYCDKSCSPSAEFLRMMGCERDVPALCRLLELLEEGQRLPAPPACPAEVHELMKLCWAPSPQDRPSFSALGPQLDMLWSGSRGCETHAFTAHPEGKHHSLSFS
The test can be described thus: Inhibition of a panel of kinases: JAK3. As to conditions: kinase panel, Table 2. The test is classed as biochemical. The procedure: as §1

LCK, sequence (P06239 whole entry, species assumed): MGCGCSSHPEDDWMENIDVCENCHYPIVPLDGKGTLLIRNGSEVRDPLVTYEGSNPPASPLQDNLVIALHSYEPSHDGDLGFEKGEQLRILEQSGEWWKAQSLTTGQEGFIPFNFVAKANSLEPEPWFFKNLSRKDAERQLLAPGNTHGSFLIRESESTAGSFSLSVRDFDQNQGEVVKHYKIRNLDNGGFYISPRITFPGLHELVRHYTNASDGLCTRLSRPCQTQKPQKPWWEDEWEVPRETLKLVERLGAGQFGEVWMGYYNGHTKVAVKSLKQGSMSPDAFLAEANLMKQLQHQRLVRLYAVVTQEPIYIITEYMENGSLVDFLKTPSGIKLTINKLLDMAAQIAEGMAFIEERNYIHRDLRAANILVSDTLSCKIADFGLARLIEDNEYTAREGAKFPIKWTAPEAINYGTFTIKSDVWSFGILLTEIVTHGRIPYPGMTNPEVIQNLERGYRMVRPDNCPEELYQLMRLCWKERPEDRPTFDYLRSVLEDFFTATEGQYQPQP
EGFR, sequence (P00533 25-1210, species assumed): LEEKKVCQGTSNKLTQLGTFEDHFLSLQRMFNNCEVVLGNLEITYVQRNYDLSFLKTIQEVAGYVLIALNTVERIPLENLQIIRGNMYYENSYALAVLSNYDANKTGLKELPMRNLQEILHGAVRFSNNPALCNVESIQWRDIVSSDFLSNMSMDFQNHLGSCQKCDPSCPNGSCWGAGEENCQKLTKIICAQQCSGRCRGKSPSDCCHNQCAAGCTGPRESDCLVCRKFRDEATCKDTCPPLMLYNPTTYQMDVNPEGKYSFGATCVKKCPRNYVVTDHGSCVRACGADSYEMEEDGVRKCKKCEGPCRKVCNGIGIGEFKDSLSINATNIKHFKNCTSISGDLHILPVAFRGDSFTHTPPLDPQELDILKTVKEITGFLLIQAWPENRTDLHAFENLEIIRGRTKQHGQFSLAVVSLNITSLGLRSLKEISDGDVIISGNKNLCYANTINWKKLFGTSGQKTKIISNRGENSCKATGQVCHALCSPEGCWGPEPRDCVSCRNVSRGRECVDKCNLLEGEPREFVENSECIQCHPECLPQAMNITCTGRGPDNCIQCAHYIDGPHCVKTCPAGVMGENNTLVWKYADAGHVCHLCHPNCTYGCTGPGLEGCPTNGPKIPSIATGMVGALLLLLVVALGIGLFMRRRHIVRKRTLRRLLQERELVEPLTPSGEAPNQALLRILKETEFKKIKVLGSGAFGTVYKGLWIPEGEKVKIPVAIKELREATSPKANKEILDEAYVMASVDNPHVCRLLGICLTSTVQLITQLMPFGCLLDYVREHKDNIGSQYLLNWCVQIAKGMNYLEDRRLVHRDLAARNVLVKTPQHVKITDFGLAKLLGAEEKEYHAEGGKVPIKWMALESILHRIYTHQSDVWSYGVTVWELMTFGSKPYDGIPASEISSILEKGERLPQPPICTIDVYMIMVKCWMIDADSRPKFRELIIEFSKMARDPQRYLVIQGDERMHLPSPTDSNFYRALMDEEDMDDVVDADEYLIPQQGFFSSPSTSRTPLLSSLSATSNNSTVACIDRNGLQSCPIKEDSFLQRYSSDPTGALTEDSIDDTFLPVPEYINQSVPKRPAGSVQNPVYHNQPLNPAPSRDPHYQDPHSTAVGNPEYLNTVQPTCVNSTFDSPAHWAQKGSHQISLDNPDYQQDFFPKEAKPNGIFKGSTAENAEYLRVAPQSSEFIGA

For `C=CC(=O)N1CC[C@@H](n2nc(-c3ccc(C(=O)Nc4cc(CCC)ccn4)cc3)c3c(N)ncnc32)C1` [Compound ID 30, (R)-4-(1-(1-acryloylpyrrolidin-3-yl)-4-amino-1H-pyrazolo[3,4-d]pyrimidin-3-yl)-N-(4-propylpyridin-2-yl)benzamide], the IC50 was less than 5 nM in the test on lymphoma cell line DOHH2 and not above 10 nM against Btk [1].
The like results for `C=CC(=O)N1CCC[C@@H](n2nc(-c3ccc(C(=O)Nc4cc(C(F)(F)F)ccn4)cc3)c3c(N)ncnc32)C1` [Compound ID 27, (R)-4-(1-(1-acryloylpiperidin-3-yl)-4-amino-1H-pyrazolo[3,4-d]pyrimidin-3-yl)-N-(4-(trifluoromethyl)pyridin-2-yl)benzamide] were, in that order, less than 5 nM and not above 10 nM.
With `C=CC(=O)N1CC[C@@H](n2nc(-c3ccc(C(=O)Nc4cc(C(F)(F)F)ccn4)cc3)c3c(N)ncnc32)C1` [Compound ID 21, (R)-4-(1-(1-acryloylpyrrolidin-3-yl)-4-amino-1H-pyrazolo[3,4-d]pyrimidin-3-yl)-N-(4-(trifluoromethyl)pyridin-2-yl)benzamide], the IC50 at LCK is 10 to 100 nM; in the test with lymphoma cell line DOHH2 it was less than 5 nM; against Btk [1] it was not above 10 nM; on Btk [2], not above 10 nM; against EGFR, not above 10 nM.
Consider `C=CC(=O)N1CC[C@@H](n2nc(-c3ccc(C(=O)Nc4cc(C(C)C)ccn4)cc3)c3c(N)ncnc32)C1` [Compound ID 23, (R)-4-(1-(1-acryloylpyrrolidin-3-yl)-4-amino-1H-pyrazolo[3,4-d]pyrimidin-3-yl)-N-(4-isopropylpyridin-2-yl)benzamide], for which the IC50 with lymphoma cell line DOHH2 was less than 5 nM; against Btk [1], not above 10 nM.
For `C=CC(=O)N1CC[C@@H](n2nc(-c3ccc(C(=O)Nc4cc(C)ccn4)cc3)c3c(N)ncnc32)C1` [Compound ID 20, (R)-4-(1-(1-acryloylpyrrolidin-3-yl)-4-amino-1H-pyrazolo[3,4-d]pyrimidin-3-yl)-N-(4-methylpyridin-2-yl)benzamide], the IC50 on LCK was 10 to 100 nM; in the test with lymphoma cell line DOHH2, less than 5 nM; on Btk [1], not above 10 nM; against Btk [2] it was not above 10 nM; on EGFR, not above 10 nM.
In the case of `CCC#CC(=O)N1CC[C@@H](n2nc(-c3ccc(C(=O)Nc4cc(C)ccn4)cc3)c3c(N)ncnc32)C1` [Compound ID 7, (R)-4-(4-amino-1-(1-pent-2-ynoylpyrrolidin-3-yl)-1H-pyrazolo[3,4-d]pyrimidin-3-yl)-N-(4-methylpyridin-2-yl)benzamide], the IC50 against JAK3 is more than 1000 nM; against LCK, more than 1000 nM; against Btk [1], not above 10 nM; against Btk [2], not above 10 nM; on EGFR, more than 1000 nM.
`CC#CC(=O)N1CC[C@@H](n2nc(-c3ccc(C(=O)Nc4ccccn4)cc3)c3c(N)ncnc32)C1` [Compound ID 3, (R)-4-(4-amino-1-(1-but-2-ynoylpyrrolidin-3-yl)-1H-pyrazolo[3,4-d]pyrimidin-3-yl)-N-(pyridin-2-yl)benzamide]: the IC50 at JAK3 was more than 1000 nM; against LCK, 10 to 100 nM; against Btk [1] it was not above 10 nM; at Btk [2], not above 10 nM; at EGFR, 100 to 1000 nM.
Turning to `C=CC(=O)N1CCC[C@@H](n2nc(-c3ccc(C(=O)Nc4cc(C)ccn4)cc3)c3c(N)ncnc32)C1` [Compound ID 26, (R)-4-(1-(1-acryloylpiperidin-3-yl)-4-amino-1H-pyrazolo[3,4-d]pyrimidin-3-yl)-N-(4-methylpyridin-2-yl)benzamide], the IC50 in the test with lymphoma cell line DOHH2 was less than 5 nM; on Btk [1], not above 10 nM.
The like results for `C=CC(=O)N1CCC[C@@H](n2nc(-c3ccc(C(=O)Nc4cc(CCC)ccn4)cc3)c3c(N)ncnc32)C1` [Compound ID 31, (R)-4-(1-(1-acryloylpiperidin-3-yl)-4-amino-1H-pyrazolo[3,4-d]pyrimidin-3-yl)-N-(4-propylpyridin-2-yl)benzamide] were, in that order, less than 5 nM and not above 10 nM.
